Measurements published in patent US20250011368A1, “DLL3 TARGETING PEPTIDES AND CONSTRUCTS THEREOF” (MARIANA ONCOLOGY INC., priority 2023, published 2025).
Numbered stars: 1 amine (or outer) side, 2 acyl side, 3 side chain; on linkers, the order of the positions; unused ones are H or OH. Bridge positions count the residues as written; N and C are the ends. Square brackets hold non-standard residues; d marks the D form. Peptide text beside a SMILES is read from it. * marks the point of attachment. X4 = O=C(O)CN1CCN(CC(=O)O)CCN(CC(=O)N[C@H]2CC[C@H](CC(=O)*)CC2)CCN(CC(=O)O)CC1; Ala(piperidin-4-yl) = O=C([C@H](CC1CCN([*:3])CC1)N[*:1])[*:2]; DOTA = O=C(O)CN1CCN(CC(=O)O)CCN(CC(=O)*)CCN(CC(=O)O)CC1; Trp(7-OMe) = COc1cccc2c(C[C@H](N)C(=O)O)c[nH]c12; Trp(7-Me) = Cc1cccc2c(C[C@H](N)C(=O)O)c[nH]c12; 2Nal = N[C@@H](Cc1ccc2ccccc2c1)C(=O)O; tBuAla = CC(C)(C)C[C@H](N)C(=O)O; 3Pal = N[C@@H](Cc1cccnc1)C(=O)O; 4Pal = N[C@@H](Cc1ccncc1)C(=O)O; Chg = N[C@H](C(=O)O)C1CCCCC1; Tle = CC(C)(C)[C@H](N)C(=O)O

target: T1, human DLL3 (Homo sapiens, UniProt Q9NYJ7); experiment: Affinity determination by Surface Plasmon Resonance (SPR); type: binding; conditions: 25° C., biotinylated human DLL3 immobilized on streptavidin sensor chip, 1:1 binding model; read-out: SPR KD
T1 sequence (Q9NYJ7 27-618): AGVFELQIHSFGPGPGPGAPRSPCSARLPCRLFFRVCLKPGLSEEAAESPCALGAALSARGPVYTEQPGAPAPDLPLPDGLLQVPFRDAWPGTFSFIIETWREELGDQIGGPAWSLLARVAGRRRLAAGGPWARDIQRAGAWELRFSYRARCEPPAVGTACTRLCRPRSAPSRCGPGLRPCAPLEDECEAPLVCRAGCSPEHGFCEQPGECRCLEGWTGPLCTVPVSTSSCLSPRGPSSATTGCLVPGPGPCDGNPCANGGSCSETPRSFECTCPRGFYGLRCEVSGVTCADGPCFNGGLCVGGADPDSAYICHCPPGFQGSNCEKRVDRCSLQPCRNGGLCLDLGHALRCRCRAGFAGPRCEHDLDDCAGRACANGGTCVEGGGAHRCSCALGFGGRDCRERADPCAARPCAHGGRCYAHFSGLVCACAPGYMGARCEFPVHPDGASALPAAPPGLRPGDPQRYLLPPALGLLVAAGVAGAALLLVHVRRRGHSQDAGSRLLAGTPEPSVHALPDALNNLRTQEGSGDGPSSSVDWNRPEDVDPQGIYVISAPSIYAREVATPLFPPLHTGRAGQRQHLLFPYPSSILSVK
Method in brief: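 Biotinylated human DLL3 was captured on a streptavidin chip with a reference surface. Compounds at several concentrations were injected at 100 μL/minute in phosphate buffer (137 mM NaCl, 2.7 mM KCl, 0.05% P20, 2% DMSO). Affinity and kinetics came from 1:1 model fits of the sensorgrams.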

Row | SMILES | Kd
1 | CC(=O)N[C@@H](Cc1c[nH]c2ccccc12)C(=O)N[C@H](C(=O)N[C@H](C(=O)N[C@H]1CSSC[C@@H](C(=O)N[C@@H](Cc2c[nH]c3ccccc23)C(=O)N2CCC[C@H]2C(=O)N[C@H](CCCCNC(=O)CN2CCN(CC(=O)O)CCN(CC(=O)O)CCN(CC(=O)O)CC2)C(N)=O)NC(=O)[C@H](CC(=O)O)NC(=O)[C@H](Cc2cnc[nH]2)NC(=O)[C@H](Cc2ccc3ccccc3c2)NC(=O)[C@H](CC(N)=O)NC(=O)[C@H](Cc2cccnc2)NC1=O)C(C)(C)C)[C@@H](C)O [compound 288, Ac-W-T-(Tbg)-C(3)-(3Pya)-N-(2Nal)-H-D-C(3)-W-P-[D-Lys(DOTA)]-NH2] (Ac-WT[Tle]C[3Pal]N[2Nal]HDCWP[dK](DOTA)-NH2; disulfide 4-10) | < 1 nM
2 | CC(=O)N[C@@H](Cc1c[nH]c2ccccc12)C(=O)N[C@H](C(=O)N[C@@H](CC(C)(C)C)C(=O)N[C@H]1CSSC[C@@H](C(=O)N[C@@H](Cc2c[nH]c3ccccc23)C(=O)N2CCC[C@H]2C(=O)N[C@H](CCCCNC(=O)CN2CCN(CC(=O)O)CCN(CC(=O)O)CCN(CC(=O)O)CC2)C(N)=O)NC(=O)[C@H](CC(=O)O)NC(=O)[C@H](Cc2cnc[nH]2)NC(=O)[C@H](Cc2ccc3ccccc3c2)NC(=O)[C@H](CC(N)=O)NC(=O)[C@H](Cc2cccnc2)NC1=O)[C@@H](C)O [compound 289, Ac-W-T-(t-Bu-Ala)-C(3)-(3Pya)-N-(2Nal)-H-D-C(3)-W-P-[D-Lys(DOTA)]-NH2] (Ac-WT[tBuAla]C[3Pal]N[2Nal]HDCWP[dK](DOTA)-NH2; disulfide 4-10) | < 1 nM
3 | CC(=O)N[C@@H](Cc1c[nH]c2ccccc12)C(=O)N[C@H](C(=O)N[C@H](C(=O)N[C@H]1CSSC[C@@H](C(=O)N[C@@H](Cc2c[nH]c3ccccc23)C(=O)N2CCC[C@H]2C(=O)N[C@H](CCCCNC(=O)CN2CCN(CC(=O)O)CCN(CC(=O)O)CCN(CC(=O)O)CC2)C(N)=O)NC(=O)[C@H](CC(=O)O)NC(=O)[C@H](Cc2cnc[nH]2)NC(=O)[C@H](Cc2ccc3ccccc3c2)NC(=O)[C@H](CC(N)=O)NC(=O)[C@H](Cc2ccncc2)NC1=O)C1CCCCC1)[C@@H](C)O [compound 290, Ac-W-T-(Chg)-C(3)-(4Pya)-N-(2Nal)-H-D-C(3)-W-P-[D-Lys(DOTA)]-NH2] (Ac-WT[Chg]C[4Pal]N[2Nal]HDCWP[dK](DOTA)-NH2; disulfide 4-10) | < 1 nM
4 | CC[C@H](C)[C@H](NC(=O)[C@@H](NC(=O)[C@H](Cc1c[nH]c2ccccc12)NC(C)=O)[C@@H](C)O)C(=O)N[C@H]1CSSC[C@@H](C(=O)N[C@@H](Cc2c[nH]c3ccccc23)C(=O)N2CCC[C@H]2C(=O)N[C@H](CCCCNC(=O)CN2CCN(CC(=O)O)CCN(CC(=O)O)CCN(CC(=O)O)CC2)C(N)=O)NC(=O)[C@H](CC(=O)O)NC(=O)[C@H](Cc2cnc[nH]2)NC(=O)[C@H](Cc2c[nH]c3c(C)cccc23)NC(=O)[C@H](CC(N)=O)NC(=O)[C@H](CC(N)=O)NC1=O [compound 295, Ac-W-T-I-C(3)-N-N-(7-Me-W)-H-D-C(3)-W-P-[D-Lys(DOTA)]-NH2] (Ac-WTICNN[Trp(7-Me)]HDCWP[dK](DOTA)-NH2; disulfide 4-10) | < 1 nM
5 | CC[C@H](C)[C@H](NC(=O)[C@@H](NC(=O)[C@H](Cc1c[nH]c2ccccc12)NC(C)=O)[C@@H](C)O)C(=O)N[C@H]1CSSC[C@@H](C(=O)N[C@@H](Cc2c[nH]c3ccccc23)C(=O)N2CCC[C@H]2C(=O)N[C@H](CCCCNC(=O)CN2CCN(CC(=O)O)CCN(CC(=O)O)CCN(CC(=O)O)CC2)C(N)=O)NC(=O)[C@H](CC(=O)O)NC(=O)[C@H](Cc2cnc[nH]2)NC(=O)[C@H](Cc2c[nH]c3c(OC)cccc23)NC(=O)[C@H](CC(N)=O)NC(=O)[C@H](CC(N)=O)NC1=O [compound 296, Ac-W-T-I-C(3)-N-N-(7-MeO-W)-H-D-C(3)-W-P-[D-Lys(DOTA)]-NH2] (Ac-WTICNN[Trp(7-OMe)]HDCWP[dK](DOTA)-NH2; disulfide 4-10) | < 1 nM
6 | CC[C@H](C)[C@H](NC(=O)[C@@H](NC(=O)[C@H](Cc1c[nH]c2ccccc12)NC(C)=O)[C@@H](C)O)C(=O)N[C@H]1CSSC[C@@H](C(=O)N[C@@H](Cc2c[nH]c3c(C)cccc23)C(=O)N2CCC[C@H]2C(=O)N[C@H](CCCCNC(=O)CN2CCN(CC(=O)O)CCN(CC(=O)O)CCN(CC(=O)O)CC2)C(N)=O)NC(=O)[C@H](CC(=O)O)NC(=O)[C@H](Cc2cnc[nH]2)NC(=O)[C@H](Cc2c[nH]c3ccccc23)NC(=O)[C@H](CC(N)=O)NC(=O)[C@H](CC(N)=O)NC1=O [compound 298, Ac-W-T-I-C(3)-N-N-W-H-D-C(3)-(7-Me-W)-P-[D-Lys(DOTA)]-NH2] (Ac-WTICNNWHDC[Trp(7-Me)]P[dK](DOTA)-NH2; disulfide 4-10) | < 1 nM

Results, then the compound that gave them:

Row | Kd | SMILES
7 | < 1 nM | CC(=O)N[C@@H](Cc1c[nH]c2ccccc12)C(=O)N[C@H](C(=O)N[C@H](C(=O)N[C@H]1CSSC[C@@H](C(=O)N[C@@H](Cc2c[nH]c3ccccc23)C(=O)N2CCC[C@H]2C(=O)N[C@H](CCCCNC(=O)CN2CCN(CC(=O)O)CCN(CC(=O)O)CCN(CC(=O)O)CC2)C(N)=O)NC(=O)[C@H]([C@@H](C)O)NC(=O)[C@H](Cc2cnc[nH]2)NC(=O)[C@H](Cc2ccc3ccccc3c2)NC(=O)[C@H](CC(N)=O)NC(=O)[C@H](CC2CCNCC2)NC1=O)C1CCCCC1)[C@@H](C)O [compound 285, Ac-W-T-(Chg)-C(3)-[3-(4-piperidinyl)-Ala]-N-(2Nal)-H-(Thr)-C(3)-W-P-[D-Lys(DOTA)]-NH2] (Ac-WT[Chg]C[Ala(piperidin-4-yl)]N[2Nal]HTCWP[dK](DOTA)-NH2; disulfide 4-10)
8 | < 1 nM | CC(=O)N[C@@H](Cc1c[nH]c2ccccc12)C(=O)N[C@H](C(=O)N[C@H](C(=O)N[C@H]1CSSC[C@@H](C(=O)N[C@@H](Cc2c[nH]c3ccccc23)C(=O)N2CCC[C@H]2C(=O)N[C@H](CCCCNC(=O)C[C@H]2CC[C@H](NC(=O)CN3CCN(CC(=O)O)CCN(CC(=O)O)CCN(CC(=O)O)CC3)CC2)C(N)=O)NC(=O)[C@H](CC(=O)O)NC(=O)[C@H](Cc2c[nH]cn2)NC(=O)[C@H](Cc2ccc3ccccc3c2)NC(=O)[C@H](CC(N)=O)NC(=O)[C@H](CC2CCNCC2)NC1=O)C1CCCCC1)[C@@H](C)O [compound 286, Ac-W-T-(Chg)-C(3)-[3-(4-piperidinyl)-Ala]-N-(2Nal)-H-D-C(3)-W-P-[D-Lys(Chx-DOTA)]-NH2] (Ac-WT[Chg]C[Ala(piperidin-4-yl)]N[2Nal]HDCWP[dK](X4)-NH2; disulfide 4-10)
9 | < 1 nM | CC(=O)N[C@@H](Cc1c[nH]c2ccccc12)C(=O)N[C@H](C(=O)N[C@H](C(=O)N[C@H]1CSSC[C@@H](C(=O)N[C@@H](Cc2c[nH]c3ccccc23)C(=O)N2CCC[C@H]2C(=O)N[C@H](CCCCNC(=O)CN2CCN(CC(=O)O)CCN(CC(=O)O)CCN(CC(=O)O)CC2)C(N)=O)NC(=O)[C@H](CC(=O)O)NC(=O)[C@H](Cc2cnc[nH]2)NC(=O)[C@H](Cc2ccc3ccccc3c2)NC(=O)[C@H](CC(N)=O)NC(=O)[C@H](Cc2cccnc2)NC1=O)C1CCCCC1)[C@@H](C)O [compound 287, Ac-W-T-(Chg)-C(3)-(3Pya)-N-(2Nal)-H-D-C(3)-W-P-[D-Lys(DOTA)]-NH2] (Ac-WT[Chg]C[3Pal]N[2Nal]HDCWP[dK](DOTA)-NH2; disulfide 4-10)
